Data reported in paper PMC5963102 (International Journal for Parasitology: Drugs and Drug …, 2017).
Read-outs that look alike come from different tables or passages of the source.

What was measured:
[1] = molecular target: Asu-ACR-16 (nicotine sensitive nAChR) (Ascaris suum, UniProt F1KYJ9); assay: Two-electrode voltage-clamp on Asu-ACR-16 nAChR expressed in Xenopus laevis oocytes; format: cell-based
Method: (§1) All nAChR subunit and ancillary factor cRNAs from A. suum (Asu-acr-16 and Asu-ric-3), O. dentatum (Ode-unc-29, Ode-unc-38, […] and Ode-acr-8) and H. contortus (Hco-ric-3, Hco-unc-50 and Hco-unc-74) were prepared as previously described ([Abongwa et al., 2016a], [Buxton et al., 2014]). Briefly, defolliculated X. laevis oocytes were obtained from Ecocyte Bioscience (Austin, TX, USA). A Nanoject II microinjector (Drummond Scientific, Broomall, PA, USA) was used to inject cRNA into the cytoplasm at the animal pole region of the oocytes. Homomeric nAChRs comprising Asu-ACR-16 subunits were expressed by co-injecting 25 ng of Asu-acr-16 with 5 ng of Asu-ric-3 in a total volume of 50 nl in nuclease-free water. Heteromeric nAChRs from O. dentatum were expressed by co-injecting 1.8 ng of each subunit cRNA that make up the levamisole (Ode-unc-29, Ode-unc-38, […] and Ode-acr-8) or pyrantel/tribendimidine (Ode-unc-29, Ode-unc-38 and Ode-unc-63) receptor with 1.8 ng of each H. contortus ancillary factor (Hco-ric-3, Hco-unc-50 and Hco-unc-74) in a total volume of 36 nl in nuclease-free water. Injected oocytes were transferred to 96-well microtiter plates containing 200 μl incubation solution (100 mM NaCl, 2 mM KCl, 1.8 mM CaCl2·2H20, 1 mM MgCl2·6H20, 5 mM HEPES, 2.5 mM Na pyruvate, 100 U·ml^−1penicillin and 100 μg ml^−1 streptomycin, pH 7.5) and incubated at 19 °C for 5–7 days to allow for functional receptor expression. Incubation solution was changed daily.
(§2) Currents produced by activation of expressed Asu-ACR-16 and Ode levamisole sensitive and Ode pyrantel/tribendimidine sensitive receptors were recorded using the two-electrode voltage-clamp electrophysiology technique as previously described ([Abongwa et al., 2016a], [Buxton et al., 2014]). 100 μM BAPTA-AM was added to the oocyte incubation solution about 4 h prior to recording to prevent activation of endogenous calcium-activated chloride currents during recording. Recordings were made using an Axoclamp 2B amplifier (Molecular Devices, Sunnyvale, CA, USA) and data acquired on a computer with Clampex 10.3 (Molecular Devices, Sunnyvale, CA, USA). For all experiments, oocytes were voltage-clamped at −60 mV. Microelectrodes for impaling oocytes were pulled using a Flaming/Brown horizontal electrode puller (Model P-97; Sutter Instruments, Novato, CA, USA). The microelectrodes were filled with 3 M KCl and their tips carefully broken with a piece of tissue paper to attain a resistance of 2–5 MΩ in recording solution (100 mM NaCl, 2.5 mM KCl, 1 mM CaCl2·2H2O and 5 mM HEPES, pH 7.3).
(§3) Electrophysiology data was measured with Clampfit 10.3 (Molecular devices, Sunnyvale CA, USA) and analyzed with GraphPad Prism 5.0 (GraphPad Software Inc., La Jolla, CA, USA). […] Concentration-response relationships (for each oocyte) were analyzed by fitting log concentration-response data points with the Hill equation as previously described ([Boulin et al., 2008]). % inhibition for monepantel was calculated using 100-Rmax for each experiment and plotted as mean ± s.e.m. on the concentration-inhibition plots. IC50's were calculated as previously described ([Zheng et al., 2016]). We used one-way ANOVA to test for statistical differences among treatment groups. If the group means were statistically different (p < .05), we used the Tukey multiple comparison test to determine significant differences between groups.

[2] = molecular target: Ode levamisole nAChR (Ode-UNC-29:Ode-UNC-38:Ode-UNC-63:Ode-ACR-8) (Oesophagostomum dentatum, UniProt E5KIX9+L7MMZ7+V5J2B2+V5J336); assay: Two-electrode voltage-clamp on Ode levamisole receptors expressed in Xenopus laevis oocytes; format: cell-based
Sequence of Ode levamisole nAChR (Ode-UNC-29:Ode-UNC-38:Ode-UNC-63:Ode-ACR-8) (L7MMZ7 entry or part of it): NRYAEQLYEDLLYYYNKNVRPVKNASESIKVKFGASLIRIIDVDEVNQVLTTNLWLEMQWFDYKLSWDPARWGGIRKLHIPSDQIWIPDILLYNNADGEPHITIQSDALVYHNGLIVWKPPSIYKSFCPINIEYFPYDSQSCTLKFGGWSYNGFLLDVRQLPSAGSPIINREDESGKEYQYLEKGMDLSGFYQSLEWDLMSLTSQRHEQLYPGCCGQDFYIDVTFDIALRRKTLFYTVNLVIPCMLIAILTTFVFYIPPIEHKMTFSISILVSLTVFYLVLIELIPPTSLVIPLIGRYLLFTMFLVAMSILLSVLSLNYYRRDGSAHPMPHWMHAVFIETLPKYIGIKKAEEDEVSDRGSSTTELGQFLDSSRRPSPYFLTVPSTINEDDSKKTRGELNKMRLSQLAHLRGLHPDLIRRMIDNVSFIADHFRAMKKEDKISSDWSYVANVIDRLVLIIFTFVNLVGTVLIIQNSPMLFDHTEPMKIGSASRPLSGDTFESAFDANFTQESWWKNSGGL
Sequence of Ode levamisole nAChR (Ode-UNC-29:Ode-UNC-38:Ode-UNC-63:Ode-ACR-8) (V5J2B2 entry or part of it): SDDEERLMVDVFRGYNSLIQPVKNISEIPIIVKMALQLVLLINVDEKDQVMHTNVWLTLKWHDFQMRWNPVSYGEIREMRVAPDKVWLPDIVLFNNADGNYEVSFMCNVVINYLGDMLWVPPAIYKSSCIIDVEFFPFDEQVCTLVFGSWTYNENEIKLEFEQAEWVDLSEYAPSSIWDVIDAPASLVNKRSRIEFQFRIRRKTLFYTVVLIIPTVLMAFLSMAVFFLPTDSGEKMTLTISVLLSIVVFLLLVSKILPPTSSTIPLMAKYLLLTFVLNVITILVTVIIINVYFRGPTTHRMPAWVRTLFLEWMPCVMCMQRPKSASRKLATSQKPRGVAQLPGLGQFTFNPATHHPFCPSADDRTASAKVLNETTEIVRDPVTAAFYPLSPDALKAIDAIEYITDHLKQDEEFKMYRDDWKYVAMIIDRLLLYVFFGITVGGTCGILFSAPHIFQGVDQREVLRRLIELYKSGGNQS
Sequence of Ode levamisole nAChR (Ode-UNC-29:Ode-UNC-38:Ode-UNC-63:Ode-ACR-8) (E5KIX9 entry or part of it): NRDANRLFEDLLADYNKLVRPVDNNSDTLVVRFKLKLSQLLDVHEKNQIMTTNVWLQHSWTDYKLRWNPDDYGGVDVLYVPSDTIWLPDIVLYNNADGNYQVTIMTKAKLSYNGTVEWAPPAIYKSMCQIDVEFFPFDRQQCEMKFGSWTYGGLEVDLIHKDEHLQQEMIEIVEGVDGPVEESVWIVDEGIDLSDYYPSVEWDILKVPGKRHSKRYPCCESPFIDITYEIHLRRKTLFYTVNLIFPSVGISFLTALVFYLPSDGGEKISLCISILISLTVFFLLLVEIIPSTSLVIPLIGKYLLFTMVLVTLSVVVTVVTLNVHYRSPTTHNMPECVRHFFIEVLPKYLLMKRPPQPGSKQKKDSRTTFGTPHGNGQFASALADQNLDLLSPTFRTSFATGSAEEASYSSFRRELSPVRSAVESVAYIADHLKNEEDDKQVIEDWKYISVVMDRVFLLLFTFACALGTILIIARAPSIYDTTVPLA
Sequence of Ode levamisole nAChR (Ode-UNC-29:Ode-UNC-38:Ode-UNC-63:Ode-ACR-8) (V5J336 entry or part of it): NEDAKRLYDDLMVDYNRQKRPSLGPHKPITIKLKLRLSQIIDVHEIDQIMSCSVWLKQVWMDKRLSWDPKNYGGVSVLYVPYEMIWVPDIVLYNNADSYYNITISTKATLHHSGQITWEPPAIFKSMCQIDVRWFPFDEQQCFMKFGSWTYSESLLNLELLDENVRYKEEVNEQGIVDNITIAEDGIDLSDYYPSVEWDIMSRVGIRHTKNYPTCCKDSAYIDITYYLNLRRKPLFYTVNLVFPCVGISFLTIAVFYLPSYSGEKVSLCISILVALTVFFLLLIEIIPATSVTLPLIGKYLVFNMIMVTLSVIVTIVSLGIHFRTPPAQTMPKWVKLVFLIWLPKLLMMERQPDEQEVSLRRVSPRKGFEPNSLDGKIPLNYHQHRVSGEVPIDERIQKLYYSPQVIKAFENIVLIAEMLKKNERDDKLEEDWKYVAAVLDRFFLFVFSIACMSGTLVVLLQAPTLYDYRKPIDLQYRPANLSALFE
Method: as §1
as §2, with “Microelectrodes for impaling oocytes were pulled using a Flaming/Brown horizontal electrode puller (Model P-97; Sutter Instruments, Novato, CA, USA). The microelectrodes were filled with 3 M KCl and their tips carefully broken with a piece of tissue paper to attain a resistance of 2–5 MΩ in recording solution (100 mM NaCl, 2.5 mM KCl, 1 mM CaCl2·2H2O and 5 mM HEPES, pH 7.3).” left out
as §3, with “We used one-way ANOVA to test for statistical differences among treatment groups. If the group means were statistically different (p < .05), we used the Tukey multiple comparison test to determine significant differences between groups.” left out

[3] = molecular target: Ode pyrantel/tribendimidine nAChR (Ode-UNC-29:Ode-UNC-38:Ode-UNC-63) (Oesophagostomum dentatum, UniProt E5KIX9+V5J2B2+V5J336); assay: Two-electrode voltage-clamp on Ode pyrantel/tribendimidine receptors expressed in Xenopus laevis oocytes; format: cell-based
Sequence of Ode pyrantel/tribendimidine nAChR (Ode-UNC-29:Ode-UNC-38:Ode-UNC-63) (V5J336 entry or part of it): as above
Sequence of Ode pyrantel/tribendimidine nAChR (Ode-UNC-29:Ode-UNC-38:Ode-UNC-63) (V5J2B2 entry or part of it): as the sequence (V5J2B2 entry or part of it) above
Sequence of Ode pyrantel/tribendimidine nAChR (Ode-UNC-29:Ode-UNC-38:Ode-UNC-63) (E5KIX9 entry or part of it): as the sequence (E5KIX9 entry or part of it) above
Method: as §1, §2, §3

A. suum muscle flaps = assay: Muscle contraction assay, isometric contractions of Ascaris body muscle flaps; format: cell-based, Ascaris suum; settings: for EC50: Ascaris suum
Method: Adult A. suum were collected from the IMES slaughterhouse, Belgrade, Serbia and maintained in Locke's solution (155 mM NaCl, 5 mM KCl, 2 mM CaCl2, 1.5 mM NaHCO3 and 5 mM glucose) at 32 °C for 5 days. Locke's solution was changed daily. Ascaris muscle flaps for contraction studies were prepared as described in [Trailović et al. (2015)]. Briefly, 1 cm muscle body flaps were prepared by dissecting the anterior 2–3 cm part of the worm. A force transducer in an experimental bath containing 20 ml APF (23 mM NaCl, 110 mM Na acetate, 24 mM KCl, 6 mM CaCl2, 5 mM MgCl2, 11 mM glucose, 5 mM HEPES, pH 7.6) and 0.1% DMSO and bubbled with nitrogen was attached to each muscle flap. The bath was maintained at 37 °C during which isometric contractions of each flap were monitored on a PC computer using a BioSmart interface and eLAB software (EIUnit, Belgrade). The system allows real time recording, display and analysis of experimental data.
Isometric contractions of each Ascaris muscle flap in the absence and presence of monepantel were monitored on a PC computer using eLAB software (EIUnit, Belgrade). GraphPad Prism 5.0 (GraphPad Software Inc., La Jolla, CA, USA) was used to analyze the data. […] Single concentration-response relationships were fitted to the data as described in Section 2.5.1.

[4] = test system: H. contortus MPTL-1 receptors; design: method as in Baur et al., 2015; settings: ref Baur et al., 2015, cited from earlier work
[5] = test system: C. elegans ACR-20 receptors; design: method as in Baur et al., 2015; settings: ref Baur et al., 2015, cited from earlier work
A. suum = test system: A. suum; design: method as in Tritten et al., 2011; settings: 600 mg/kg; ref Tritten et al., 2011; cited from earlier work
[6] = read-out: acetylcholine Rmax (mean ± s.e.m.)

Sequence of Asu-ACR-16 (nicotine sensitive nAChR) (F1KYJ9 entry or part of it): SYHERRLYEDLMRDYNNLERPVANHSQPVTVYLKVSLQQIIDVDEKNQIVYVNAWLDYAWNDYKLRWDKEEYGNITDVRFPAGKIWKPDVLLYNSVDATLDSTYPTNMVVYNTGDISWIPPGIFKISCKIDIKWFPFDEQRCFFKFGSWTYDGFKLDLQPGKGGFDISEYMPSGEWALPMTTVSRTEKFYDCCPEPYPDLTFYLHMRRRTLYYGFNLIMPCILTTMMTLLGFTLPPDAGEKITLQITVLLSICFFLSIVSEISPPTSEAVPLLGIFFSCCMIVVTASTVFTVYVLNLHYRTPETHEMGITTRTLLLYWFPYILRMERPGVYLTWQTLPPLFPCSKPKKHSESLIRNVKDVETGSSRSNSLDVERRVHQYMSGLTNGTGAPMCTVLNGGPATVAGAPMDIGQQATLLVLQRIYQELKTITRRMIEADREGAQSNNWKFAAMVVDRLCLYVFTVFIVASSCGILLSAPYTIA

CC(=O)OCC[N+](C)(C)C [Acetylcholine]
Emax [1, 6]: 97.5 ± 1.2%
Emax [2, 6]: 108.8 ± 1%
EC50 [3]: 11.3 ± 1.3 µM
Emax [3, 6]: 118 ± 4.5%
EC50 (A. suum muscle flaps; read-out: acetylcholine EC50 (contraction)): 5.3 µM
EC50 (A. suum muscle flaps; read-out: acetylcholine log EC50 ± s.e.m. (contraction) (converted)): 5.01 µM
acetylcholine Rmax (mean ± s.e.m.), contraction (A. suum muscle flaps; acetylcholine alone (control)): 1.7 ± 0.4 g

C[C@](C#N)(COc1cc(C#N)ccc1C(F)(F)F)NC(=O)c1ccc(SC(F)(F)F)cc1 [monepantel, N-[(2S)-2-cyano-1-[5-cyano-2-(trifluoromethyl)phenoxy]propan-2-yl]-4-(trifluoromethylsulfanyl)benzamide]
IC50 [1]: 0.2 µM
type of antagonism of acetylcholine responses ([1]; co-applied with acetylcholine): non-competitive antagonism
maximum inhibition ([1]; component with IC50 1.6 nM): 40%
maximum inhibition ([1]; component with IC50 0.2 μM): ~100%
agonist action (receptor activation) ([1]; monepantel applied on its own): did not cause activation
IC50 [2]: 5 ± 0.5 µM
type of antagonism of acetylcholine responses ([2]; co-applied with acetylcholine): non-competitive antagonist
agonist action (receptor activation) ([2]; monepantel applied alone): failed to activate
IC50 [3]: 1.7 ± 0.7 µM
type of antagonism of acetylcholine responses ([3]; co-applied with acetylcholine): non-competitive antagonism
agonist action (receptor activation) ([3]; monepantel alone): did not activate
concentration at which it acts as direct agonist ([4]; high concentrations): > 0.1 µM
concentration at which it acts as positive allosteric modulator ([4]; low concentrations): < 1 nM
concentration at which it acts as direct agonist ([5]; high concentrations): > 0.1 µM
concentration at which it acts as positive allosteric modulator ([5]; low concentrations): < 1 nM
type of antagonism of acetylcholine induced contractions (A. suum muscle flaps; 1-30 μM monepantel): mixture of competitive and non-competitive antagonism
acetylcholine Rmax (mean ± s.e.m.), contraction (A. suum muscle flaps; in the presence of 3 μM monepantel): 1.1 ± 0.3 g
acetylcholine Rmax (mean ± s.e.m.), contraction (A. suum muscle flaps; in the presence of 10 μM monepantel): 1.1 ± 0.5 g
acetylcholine Rmax (mean ± s.e.m.), contraction (A. suum muscle flaps; in the presence of 30 μM monepantel): 0.5 ± 0.4 g
effect on baseline tension (A. suum muscle flaps; monepantel on its own): did not produce any significant change in baseline tension
in vivo activity against A. suum (A. suum): lack in vivo activity
